Measured values as given in patent US20250282749A1 (Tango Therapeutics, Inc., priority 2022, published 2025).
pIC50: −log10 of the molar value.

Assays:
Type in all cases: cell-based
[1] = system: HAP1 MTAP-deleted cell line; test: viability assay for the MTAP-deleted cell line; settings: Homo sapiens
[2] = system: PRMT5 (SDMA) in HAP1 MTAP-intact cell line; test: SDMA in-cell western assay, HAP1 MTAP-intact cell line; settings: Homo sapiens, HAP1 MTAP-intact cell line (endogenous MTAP), read-out: Hap 1 MTAP intact IC50
Text: (§1) HAP1 MTAP-intact is a cell line in which endogenous levels of MTAP are expressed, and HAP1 MTAP-deleted is an MTAP-null cell line.

[3] = system: PRMT5 (SDMA) in HAP1 MTAP-deleted cell line; test: SDMA in-cell western assay, HAP1 MTAP-deleted cell line; settings: for pIC50 / IC90: Homo sapiens, SDMA in-cell western, HAP1 MTAP-deleted (MTAP-null) cell line; for Hap1 MTAP intact/deleted ratio: ratio of SDMA in-cell western IC50 in HAP1 MTAP-intact to IC50 in HAP1 MTAP-deleted cell line
Text: as §1

Row | pIC50 [2] | pIC50 [3] | IC90 [3] [nM] | SMILES | pIC50 [1] | Hap1 MTAP intact/deleted ratio [3]
1 | < 7.30 | 7.30 to 8.30 | < 75 | CCc1cc(NC(=O)C(=O)N2C[C@@H](C)N(C(=O)C3(C)CC3)C[C@@H]2c2ccccc2)cnc1N [Compound 58, N-(6-amino-5-ethylpyridin-3-yl)-2-((2S,5R)-5-methyl-4-(1-methylcyclopropanecarbonyl)-2-phenylpiperazin-1-yl)-2-oxoacetamide] | > 7.00 | C (an IC50 ratio of less than 15 fold)
2 | < 7.30 | 7.30 to 8.30 | < 75 | CC(C)C(=O)N1C[C@H](c2cccc(Cl)c2)N(C(=O)C(=O)Nc2cnc(N)c(C3CC3)c2)C[C@H]1C [Compound 133, N-(6-amino-5-cyclopropylpyridin-3-yl)-2-((2S,5R)-2-(3-chlorophenyl)-4-isobutyryl-5-methylpiperazin-1-yl)-2-oxoacetamide] | > 7.00 | B (an IC50 ratio greater than or equal to 15 fold but lower than 30 fold)
3 | < 7.30 | > 8.30 | < 75 | C[C@@H]1CN(C(=O)C(=O)Nc2cnc(N)c3cn[nH]c23)[C@@H](c2ccccc2)CN1C [Compound 57] | > 7.00 | B (an IC50 ratio greater than or equal to 15 fold but lower than 30 fold)

The remaining lines, values behind:

Row | SMILES | pIC50 [2] | pIC50 [3] | IC90 [3] [nM] | pIC50 [1] | Hap1 MTAP intact/deleted ratio [3]
4 | C[C@H]1CN(C(=O)C(=O)Nc2cnc(N)c(C3CC3)c2)[C@H](c2ccc(F)cc2)CN1C(=O)CC1CC1 [Compound 6] | < 7.30 | 7.30 to 8.30 | 75 to 125 | > 7.00 | B (an IC50 ratio greater than or equal to 15 fold but lower than 30 fold)
5 | Cc1cccc([C@H]2CN(C(=O)C3(C(F)(F)F)CC3)[C@H](C)CN2C(=O)C(=O)Nc2cnc(N)c(C)c2)c1 [Compound 30, N-(6-amino-5-methylpyridin-3-yl)-2-((2S,5R)-5-methyl-2-(m-tolyl)-4-(1-(trifluoromethyl)cyclopropanecarbonyl)piperazin-1-yl)-2-oxoacetamide] | < 7.30 | 7.30 to 8.30 | 75 to 125 | > 7.00 | C (an IC50 ratio of less than 15 fold)
6 | CC(C)OC(=O)N1C[C@H](c2ccc(F)cc2)N(C(=O)C(=O)Nc2cnc(N)c(C3CC3)c2)C[C@H]1C (stereo in doubt) [Compound 92, isopropyl 4-(2-((6-amino-5-cyclopropylpyridin-3-yl)amino)-2-oxoacetyl)-5-(4-fluorophenyl)-2-methylpiperazine-1-carboxylate] | < 7.30 | < 7.30 | > 125 | < 6.00 | C (an IC50 ratio of less than 15 fold)
7 | C[C@@H]1CN(C(=O)C(=O)Nc2cnc(N)c(C3CC3)c2)[C@@H](c2ccc3scnc3c2)CN1C(=O)C1(C(F)(F)F)CC1 [Compound 141, N-(6-amino-5-cyclopropyl-3-pyridyl)-2-[(2S,5R)-2-(1,3-benzothiazol-5-yl)-5-methyl-4-[1-(trifluoromethyl)cyclopropanecarbonyl]piperazin-1-yl]-2-oxo-acetamide] |  |  |  | > 7.00 | 
8 | C[C@@H]1CN(C(=O)C(=O)Nc2cnc(N)c3cn[nH]c23)[C@@H](c2ccccc2)CN1C(=O)C(C)(C)C [Compound 124, N-(4-amino-1H-pyrazolo[4,3-c]pyridin-7-yl)-2-((2S,5R)-5-methyl-2-phenyl-4-pivaloylpiperazin-1-yl)-2-oxoacetamide] |  |  |  | > 7.00 | 
9 | Cc1cc(NC(=O)C(=O)N2C[C@@H](C)N(C(=O)C(C)C)C[C@@H]2c2ccc(F)cc2)cnc1N (relative stereo) [Compound 20, N-(6-amino-5-methyl-3-pyridyl)-2-[(2S,5R)-2-(4-fluorophenyl)-5-methyl-4-(2-methylpropanoyl)piperazin-1-yl]-2-oxo-acetamide] |  |  |  | 6.00 to 7.00 | 
